Test results: paper PMC9585585, “Discovery of Small-Molecule Allosteric Inhibitors of PfATC as Antimalarials” (Journal of the American Chemical Society, 2022)
Where two headings read alike, the source gives them in different places.

How the values were obtained:
[1] = biological target: PfATC (Plasmodium falciparum, UniProt A0A5K1K910); experiment: biochemical
Description: Following washing with Lysis buffer
Excess imidazole was removed and the His-tag was cleaved
400Then, the sample was loaded onto a 5 ml HiTrap SP HP column (GE Healthcare, USA) and
410PfATC activity assay. Enzymatic reactions were performed in a total volume of 150 µL in 50 mM
Small-molecule dose-response curves were
The reactions were initiated by adding CP and quenched after 10 min with
After plates were sealed with transparent sealing
(§1) 420tape to prevent evaporation and incubated overnight in the dark place at room temperature. After
Analyses were performed using
The enzymatic assay was performed as described herein above for
Briefly, the reaction was carried out at room
The reaction was initiated by
Then the plate was covered by sealing
(§2) 430tape and kept in dark place at room temperature and then heated to 95 °C for 15min in dark and kept

[2] = biological target: T1, HsATC (Homo sapiens, UniProt P27708); experiment: HsATC activity assay; type: biochemical; details: in vitro activity assay, 10 mM L-aspartate, 5 mM carbamoyl phosphate; read-out: HsATC IC50
T1 construct: ATCase domain of CAD; made in house; host or cells: E. coli BL21 star
T1 sequence (P27708 1918-2225 limits assumed): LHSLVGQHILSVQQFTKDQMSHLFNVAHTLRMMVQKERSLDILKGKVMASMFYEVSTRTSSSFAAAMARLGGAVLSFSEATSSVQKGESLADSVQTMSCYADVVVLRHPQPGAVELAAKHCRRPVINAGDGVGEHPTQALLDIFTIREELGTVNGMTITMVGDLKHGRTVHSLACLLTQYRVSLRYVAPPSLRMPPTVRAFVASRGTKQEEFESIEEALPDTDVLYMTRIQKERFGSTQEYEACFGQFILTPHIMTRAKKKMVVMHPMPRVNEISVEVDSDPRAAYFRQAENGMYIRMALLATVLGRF
Description: 417100μL of stop mix (two volumes of Antipyrine (26.5 mM 2,3-Dimethyl-1-phenyl-3-pyrazolin-5-
418one in 50% (v/v) sulfuric acid) and one volume of 2,3-Butanedione monoxime (80 mM 2,3-
419Butanedione monoxime in 5% (v/v) acetic acid). After plates were sealed with transparent sealing
as §1
421incubation, the plates were heated at 95 °C for 15 min in dark place, and kept for 30 min before
422measuring at 466 nm suing a Synergy H1 Hybrid Reader (BioTek). Analyses were performed using
423Microsoft Excel and Graph Pad Prism.
424HsATC activity assay. The enzymatic assay was performed as described herein above for
425enzymatic assay of PfATC with minor modifications. Briefly, the reaction was carried out at room
426temperature in a total volume of 150 μl of 10 mM L-aspartate and 5 mM carbamoyl phosphate
427saturated substrate solution in 50 mM Tris-Acetate buffer pH 8.3. hsATC was pre-incubated with
428inhibitor and L-Asp for 10 min at room temperature on a shaker. The reaction was initiated by
429adding CP and stopped after 5 min with […] color mix. Then the plate was covered by sealing
as §2
431the plate in the dark for another 30 min before measuring the absorbance at 466 nm suing a Synergy
432H1 Hybrid Reader (BioTek). […]

[3] = in vitro enzyme assay, PfATC 50 nM, n = 3, read-out: IC50 against PfATC
[4] = in vitro activity assay, PfATC 50 nM, 2 mM CP, 1 mM aspartate, read-out: PfATC IC50

Chain of PfATC (A0A5K1K910 entry or part of it): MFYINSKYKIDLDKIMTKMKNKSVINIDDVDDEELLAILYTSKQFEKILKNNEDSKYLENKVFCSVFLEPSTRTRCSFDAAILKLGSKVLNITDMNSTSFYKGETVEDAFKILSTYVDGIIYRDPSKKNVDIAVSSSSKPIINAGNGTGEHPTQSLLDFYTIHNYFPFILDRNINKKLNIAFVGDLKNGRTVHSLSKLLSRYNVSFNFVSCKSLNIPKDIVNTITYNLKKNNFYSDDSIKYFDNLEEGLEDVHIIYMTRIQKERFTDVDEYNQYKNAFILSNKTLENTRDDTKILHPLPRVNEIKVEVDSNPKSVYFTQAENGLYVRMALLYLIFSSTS

C#CCNC(=O)c1cc(-c2ccccc2)sc1N [compound 2]
IC50 [1, 3]: 4910 nM

CC(C)(C)OC(=O)Nc1sc(-c2cncc(Cl)c2)cc1C(=O)NCCc1ccc(O)cc1 [BDA-40]
IC50 [2]: 11400 nM

COC(=O)c1c(NC(=O)OC(C)(C)C)sc2c1CCN(Cc1ccccc1)C2 [BDA-64]
IC50 [1, 4]: 86900 nM
IC50 [2]: 704000 nM

Cc1ccc(CCNC(=O)c2cc(-c3ccccc3)sc2NC(=O)OC(C)(C)C)cc1 [BDA-23]
IC50 [1, 4]: 409 nM
IC50 [2]: 756 nM

C=CCNC(=O)c1cc(-c2ccccc2)sc1N [compound 3]
IC50 [1, 3]: 4610 nM

CC(C)(C)OC(=O)Nc1sc(-c2ccccc2)cc1C(=O)NCc1ccccc1 [BDA-34]
IC50 [1, 4]: 849 nM
IC50 [2]: 212 nM

CC(C)(C)OC(=O)Nc1sc(-c2cccc(N3CCOCC3)c2)cc1C(=O)NCCc1ccc(O)cc1 [BDA-47]
IC50 [1, 4]: 1530 nM
IC50 [2]: 238 nM

CC(C)c1cc(C(=O)NCCc2ccc(O)cc2)c(NC(=O)OC(C)(C)C)s1 [BDA-62]
IC50 [1, 4]: 2200 nM
IC50 [2]: 1120 nM

CC(C)(C)OC(=O)Nc1sc2c(c1C(=O)NCCc1ccc(O)cc1)CCN(Cc1ccccc1)C2 [BDA-36]
IC50 [2]: 3840 nM

CC(C)(C)OC(=O)Nc1sc2c(c1C(=O)NCCc1ccc(O)cc1)CCCC2 [BDA-43]
IC50 [1, 4]: 18400 nM
IC50 [2]: 2090 nM

COC(=O)c1c(N)sc2c1CCN(Cc1ccccc1)C2 [BDA-68]
IC50 [2]: 58300 nM

CC(C)(C)OC(=O)Nc1sc(-c2ccccc2)cc1C(=O)NCC(=O)c1ccccc1 [BDA-27]
IC50 [1, 4]: 1230 nM
IC50 [2]: 369 nM

Nc1sc(Cc2ccccc2)cc1C(=O)NCCc1ccc(O)cc1 [BDA-58]
IC50 [1, 4]: 4830 nM
IC50 [2]: 1230 nM

CC(C)(C)OC(=O)Nc1sc(-c2cccc(N)c2)cc1C(=O)NCCc1ccc(O)cc1 [BDA-51]
IC50 [1, 4]: 1240 nM
IC50 [2]: 226 nM

CC(C)(C)OC(=O)Nc1sc(-c2ccc(Cl)c(Cl)c2)cc1C(=O)NCCc1ccc(O)cc1 [BDA-56]
IC50 [1, 4]: 2220 nM
IC50 [2]: 556 nM

COC(=O)c1cc(-c2ccccc2)sc1N [BDA-01]
IC50 [1, 4]: 1270 nM
IC50 [2]: 1540 nM

CC(C)(C)OC(=O)Nc1sc(-c2ccc3c(c2)OCO3)cc1C(=O)NCCc1ccc(O)cc1 [BDA-41]
IC50 [1, 4]: 673 nM
IC50 [2]: 28.9 nM

CC(C)(C)OC(=O)Nc1sc(-c2ccccc2)cc1C(=O)NCc1ccc(O)cc1 [BDA-30]
IC50 [1, 4]: 2620 nM
IC50 [2]: 397 nM

CC(C)c1cc(C(=O)NCCc2ccc(O)cc2)c(N)s1 [BDA-61]
IC50 [1, 4]: 1980 nM
IC50 [2]: 862 nM

Nc1sc(-c2ccccc2)cc1C(=O)NCCc1ccc(S(N)(=O)=O)cc1 [BDA-07]
IC50 [1, 4]: 996 nM
IC50 [2]: 116 nM

Nc1sc(-c2ccccc2)cc1C(=O)NCCc1ccc(F)cc1 [BDA-46]
IC50 [1, 4]: 1640 nM
IC50 [2]: 740 nM

CC(C)(C)OC(=O)Nc1sc(-c2ccccc2)cc1C(=O)N1CCN(c2ccc(F)cc2)CC1 [BDA-10]
IC50 [1, 4]: 5080 nM
IC50 [2]: 298 nM

CC(C)(C)OC(=O)NCC(=O)Nc1sc(-c2ccccc2)cc1C(=O)NCCc1ccc(O)cc1 [BDA-17]
IC50 [1, 4]: 1150 nM
IC50 [2]: 308 nM

COC(=O)c1cc(-c2ccccc2)sc1NC(=O)OC(C)(C)C [BDA-02]
IC50 [1, 4]: 1470 nM
IC50 [2]: 1500 nM

O=C(NCCc1ccccc1)c1cc(-c2ccccc2)sc1NCc1ncc[nH]1 [BDA-13]
IC50 [1, 4]: 639 nM
IC50 [2]: 268 nM

COc1ccc(CCNC(=O)c2cc(-c3ccccc3)sc2NC(=O)OC(C)(C)C)cc1 [BDA-29]
IC50 [1, 4]: 1620 nM
IC50 [2]: 585 nM

CC(C)(C)OC(=O)Nc1sc(-c2ccccc2)cc1C(=O)NCC(c1ccccc1)c1ccccc1 [BDA-39]
IC50 [1, 4]: 5640 nM
IC50 [2]: 15400 nM

CC(C)(C)OC(=O)Nc1sc(-c2ccccc2)cc1C(=O)Nc1ccccc1 [BDA-31]
IC50 [1, 4]: 1050 nM
IC50 [2]: 332 nM

COC(=O)c1c(N)sc2c1CCC(c1ccccc1)C2 (centres unmarked) [BDA-66]
IC50 [1, 4]: 1290 nM
IC50 [2]: 764 nM

CC(C)(C)OC(=O)Nc1sc(-c2ccccc2)c(-c2ccccc2)c1C(=O)NCCc1ccc(O)cc1 [BDA-60]
IC50 [1, 4]: 2010 nM
IC50 [2]: 1050 nM

CC(C)(C)OC(=O)Nc1sc(-c2cccc(C=O)c2)cc1C(=O)NCCc1ccc(O)cc1 [BDA-48]
IC50 [1, 4]: 1660 nM
IC50 [2]: 125 nM

CCCCNC(=O)c1cc(-c2ccccc2)sc1N [compound 4]
IC50 [1, 3]: 3320 nM

Cc1ccc(-c2cc(C(=O)NCCc3ccc(O)cc3)c(NC(=O)OC(C)(C)C)s2)cc1 [BDA-52]
IC50 [1, 4]: 558 nM
IC50 [2]: 119 nM

CC(C)(C)OC(=O)Nc1sc(-c2ccc3c(c2)OCCO3)cc1C(=O)NCCc1ccc(O)cc1 [BDA-33]
IC50 [1, 4]: 516 nM
IC50 [2]: 100 nM

CC(C)(C)OC(=O)Nc1sc(Br)cc1C(=O)NCCc1ccc(O)cc1 [BDA-32]
IC50 [1, 4]: 2760 nM
IC50 [2]: 641 nM

CC(C)(C)OC(=O)Nc1sc(-c2ccccc2)cc1C(=O)NCCc1ccc(F)cc1 [BDA-28]
IC50 [1, 4]: 1630 nM
IC50 [2]: 391 nM

CC(C)(C)OC(=O)Nc1sc(Cc2ccccc2)cc1C(=O)NCCc1ccc(O)cc1 [BDA-59]
IC50 [1, 4]: 3110 nM
IC50 [2]: 2590 nM

CC(C)(C)OC(=O)Nc1sc(-c2ccccc2)cc1C(=O)O [BDA-03]
IC50 [1, 4]: 1000 nM
IC50 [2]: 1630 nM

O=C(Cc1c[nH]c2ccccc12)Nc1sc(-c2ccccc2)cc1C(=O)NCCc1ccccc1 [BDA-08]
IC50 [1, 4]: 14700 nM

CC(C)(C)OC(=O)Nc1sc(-c2ccccc2)cc1C(=O)NCCCc1ccccc1 [BDA-26]
IC50 [1, 4]: 576 nM
IC50 [2]: 555 nM

CCCNC(=O)c1cc(-c2ccccc2)sc1N [compound 5]
IC50 [1, 3]: 5690 nM

CC(C)(C)OC(=O)Nc1sc(-c2cnc(N)nc2)cc1C(=O)NCCc1ccc(O)cc1 [BDA-35]
IC50 [1, 4]: 2080 nM
IC50 [2]: 234 nM

Nc1sc(-c2ccccc2)cc1C(=O)NCCc1ccccc1 [BDA-05]
IC50 [1, 4]: 1270 nM
IC50 [2]: 765 nM

Nc1sc(-c2ccccc2)cc1C(=O)NCCc1ccc(O)cc1 [BDA-50]
IC50 [1, 4]: 1140 nM
IC50 [2]: 360 nM

COCCNC(=O)c1cc(-c2ccccc2)sc1N [compound 1]
IC50 [1]: 1590 nM

CC(C)(C)OC(=O)Nc1sc(-c2ccccc2)cc1C(=O)Nc1ccc(N2CCOCC2)c(F)c1 [BDA-37]
IC50 [1, 4]: 1080 nM
IC50 [2]: 349 nM

N#CC1(C(=O)Nc2sc(-c3ccccc3)cc2C(=O)NCCc2ccc(O)cc2)CC1 [BDA-70]
IC50 [1, 4]: 876 nM
IC50 [2]: 556 nM

CC(C)(C)OC(=O)Nc1sc(-c2ccc(F)cc2)cc1C(=O)NCCc1ccc(O)cc1 [BDA-54]
IC50 [1, 4]: 845 nM
IC50 [2]: 158 nM

Cc1c(-c2ccccc2)sc(NC(=O)OC(C)(C)C)c1C(=O)NCCc1ccc(O)cc1 [BDA-49]
IC50 [1, 4]: 5940 nM
IC50 [2]: 729 nM

CC(C)(C)OC(=O)Nc1sc(-c2ccccc2)cc1C(=O)NCCc1ccc(S(N)(=O)=O)cc1 [BDA-06]
IC50 [1, 4]: 1870 nM
IC50 [2]: 287 nM

CC(C)(C)OC(=O)Nc1sc(-c2ccccc2)cc1C(=O)NC1CCN(Cc2ccccc2)CC1 [BDA-38]
IC50 [1, 4]: 805 nM
IC50 [2]: 185 nM

CC(C)(C)OC(=O)Nc1sc2c(c1C(=O)NCCc1ccc(O)cc1)CCC(c1ccccc1)C2 (centres unmarked) [BDA-42]
IC50 [1, 4]: 12200 nM
IC50 [2]: 2420 nM

CC(C)(C)OC(=O)NCC1CCN(C(=O)c2cc(-c3ccccc3)sc2NC(=O)OC(C)(C)C)CC1 [BDA-09]
IC50 [1, 4]: 241 nM
IC50 [2]: 196 nM

COC(=O)c1c(NC(=O)OC(C)(C)C)sc2c1CCCC2 [BDA-67]
IC50 [1, 4]: 1360 nM
IC50 [2]: 1010 nM

CC(C)(C)OC(=O)Nc1sc(-c2ccccc2)cc1C(=O)N1CCN(c2ccc(O)cc2)CC1 [BDA-63]
IC50 [1, 4]: 1090 nM
IC50 [2]: 250 nM

CC(C)(C)OC(=O)Nc1sc(-c2ccccc2)cc1C(=O)NCCC1=CCCCC1 [BDA-20]
IC50 [1, 4]: 6310 nM
IC50 [2]: 2000 nM

CC(C)(C)OC(=O)Nc1oc(-c2ccc(Cl)cc2)cc1C(=O)NCCc1ccc(O)cc1 [BDA-44]
IC50 [1, 4]: 6110 nM
IC50 [2]: 830 nM

COC(=O)c1c(NC(=O)OC(C)(C)C)sc2c1CCC(c1ccccc1)C2 (centres unmarked) [BDA-65]
IC50 [1, 4]: 6420 nM
IC50 [2]: 5170 nM

CC(C)(C)OC(=O)Nc1sc(-c2ccccc2)cc1C(=O)NCCN1CCOCC1 [BDA-57]
IC50 [1, 4]: 800 nM
IC50 [2]: 381 nM

COC(=O)c1cc(-c2ccc3c(c2)OCCO3)sc1NC(=O)OC(C)(C)C [BDA-69]
IC50 [1, 4]: 1050 nM
IC50 [2]: 1030 nM

CC(C)CCNc1sc(-c2ccccc2)cc1C(=O)NCCc1ccccc1 [BDA-12]
IC50 [1, 4]: 159 nM
IC50 [2]: 655 nM
